In article PMC6979384, “Characterization of the plant homeodomain (PHD) reader family for their histone tail interactions” (Epigenetics & Chromatin, 2020):

Columns and labels:
Assay in all cases: Histone peptide microarray
Assay type in all cases: binding, human
Details in all cases: sheet "Array Heatmap"; GST-tagged reader; histone peptide array, total n = 4
AIRE (PP) = test system: AIRE (PP)
Summary of the method: (§1)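 GST-PHD reader, 0.5 μM, probed on 293-peptide histone array (single/combinatorial PTMs); optimized array protocol; signal = mean ± SD, n = 4.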

BAZ2B = test system: BAZ2B
Summary of the method: as §1

BPTF (PB) = test system: BPTF (PB)
Summary of the method: as §1

CHD4 (PPCC) = test system: CHD4 (PPCC)
Summary of the method: as §1

CHD5 (PCC) = test system: CHD5 (PCC)
Summary of the method: as §1

CHD5 (PPCC) = test system: CHD5 (PPCC)
Summary of the method: as §1

DIDO1 = test system: DIDO1
Summary of the method: as §1

DPF2 (PPC2W2) = test system: DPF2 (PPC2W2)
Summary of the method: as §1

ING1 = test system: ING1
Summary of the method: as §1

ING2 = test system: ING2
Summary of the method: as §1

ING3 = test system: ING3
Summary of the method: as §1

ING4 = test system: ING4
Summary of the method: as §1

ING5 = test system: ING5
Summary of the method: as §1

KDM4C (TTP) = test system: KDM4C (TTP)
Summary of the method: as §1

KDM5A (1) = test system: KDM5A (1)
Summary of the method: as §1

KDM5A (3) = test system: KDM5A (3)
Summary of the method: as §1

KDM5B (1) = test system: KDM5B (1)
Summary of the method: as §1

KDM5B (3) = test system: KDM5B (3)
Summary of the method: as §1

KDM7A = test system: KDM7A
Summary of the method: as §1

MLL5 = test system: MLL5
Summary of the method: as §1

MORC3 (CW) = test system: MORC3 (CW)
Summary of the method: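 Binding read as mean relative signal from 4 replicates; microarray held 293 synthetic histone peptides with single or combinatorial PTMs. Each GST-tagged PHD reader was applied at 0.5 μM using the optimized Petell protocol.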

PHF13 = test system: PHF13
Summary of the method: as §1

PHF21A = test system: PHF21A
Summary of the method: as §1

PHF23 = test system: PHF23
Summary of the method: as §1

PHF2 = test system: PHF2
Summary of the method: as §1

PHF8 = test system: PHF8
Summary of the method: as §1

PHRF1 (RP) = test system: PHRF1 (RP)
Summary of the method: as §1

RAG2 = test system: RAG2
Summary of the method: as §1

SP140L = test system: SP140L
Summary of the method: as §1

TAF3 = test system: TAF3
Summary of the method: as §1

TRIM66 (PB) = test system: TRIM66 (PB)
Summary of the method: as §1

H3R2me2s + K4me3 + K9ac + K14ac + K18ac: H3 1-20
Array Heatmap signal, AIRE (PP) (AIRE (PP)): 0.3152
Array Heatmap signal, BAZ2B (BAZ2B): 0.3825
Array Heatmap signal, BPTF (PB) (BPTF (PB)): 0.2994
Array Heatmap signal, CHD4 (PPCC) (CHD4 (PPCC)): 0.4966
Array Heatmap signal, CHD5 (PCC) (CHD5 (PCC)): 0.6375
Array Heatmap signal, CHD5 (PPCC) (CHD5 (PPCC)): 0.4157
Array Heatmap signal, DIDO1 (DIDO1): 0.6935
Array Heatmap signal, DPF2 (PPC2W2) (DPF2 (PPC2W2)): 0.5621
Array Heatmap signal, ING1 (ING1): 0.5042
Array Heatmap signal, ING2 (ING2): 0.6168
Array Heatmap signal, ING3 (ING3): 0.3864
Array Heatmap signal, ING4 (ING4): 0.356
Array Heatmap signal, ING5 (ING5): 0.2654
Array Heatmap signal, KDM4C (TTP) (KDM4C (TTP)): 0.3487
Array Heatmap signal, KDM5A (1) (KDM5A (1)): 0.3527
Array Heatmap signal, KDM5A (3) (KDM5A (3)): 0.5269
Array Heatmap signal, KDM5B (1) (KDM5B (1)): 0.5889
Array Heatmap signal, KDM5B (3) (KDM5B (3)): 0.4309
Array Heatmap signal, KDM7A (KDM7A): 0.2957
Array Heatmap signal, MLL5 (MLL5): 0.5797
Array Heatmap signal, MORC3 (CW) (MORC3 (CW)): 0.4658
Array Heatmap signal, PHF13 (PHF13): 0.4921
Array Heatmap signal, PHF21A (PHF21A): 0.377
Array Heatmap signal, PHF23 (PHF23): 0.5367
Array Heatmap signal, PHF2 (PHF2): 0.5721
Array Heatmap signal, PHF8 (PHF8): 0.402
Array Heatmap signal, PHRF1 (RP) (PHRF1 (RP)): 0.3639
Array Heatmap signal, RAG2 (RAG2): 0.309
Array Heatmap signal, SP140L (SP140L): 0.3075
Array Heatmap signal, TAF3 (TAF3): 0.2641
Array Heatmap signal, TRIM66 (PB) (TRIM66 (PB)): 0.4734

H3R8me1 + K9me2: H3 1-20
Array Heatmap signal, AIRE (PP) (AIRE (PP)): 0.4949
Array Heatmap signal, BAZ2B (BAZ2B): 0.525
Array Heatmap signal, BPTF (PB) (BPTF (PB)): 0.4109
Array Heatmap signal, CHD4 (PPCC) (CHD4 (PPCC)): 0.7009
Array Heatmap signal, CHD5 (PCC) (CHD5 (PCC)): 0.7992
Array Heatmap signal, CHD5 (PPCC) (CHD5 (PPCC)): 0.658
Array Heatmap signal, DIDO1 (DIDO1): 0.8013
Array Heatmap signal, DPF2 (PPC2W2) (DPF2 (PPC2W2)): 0.8023
Array Heatmap signal, ING1 (ING1): 0.6213
Array Heatmap signal, ING2 (ING2): 0.6201
Array Heatmap signal, ING3 (ING3): 0.5783
Array Heatmap signal, ING4 (ING4): 0.5352
Array Heatmap signal, ING5 (ING5): 0.4288
Array Heatmap signal, KDM4C (TTP) (KDM4C (TTP)): 0.5659
Array Heatmap signal, KDM5A (1) (KDM5A (1)): 0.5283
Array Heatmap signal, KDM5A (3) (KDM5A (3)): 0.6031
Array Heatmap signal, KDM5B (1) (KDM5B (1)): 0.696
Array Heatmap signal, KDM5B (3) (KDM5B (3)): 0.5247
Array Heatmap signal, KDM7A (KDM7A): 0.3959
Array Heatmap signal, MLL5 (MLL5): 0.5733
Array Heatmap signal, MORC3 (CW) (MORC3 (CW)): 0.4736
Array Heatmap signal, PHF13 (PHF13): 0.7136
Array Heatmap signal, PHF21A (PHF21A): 0.4957
Array Heatmap signal, PHF23 (PHF23): 0.6046
Array Heatmap signal, PHF2 (PHF2): 0.6657
Array Heatmap signal, PHF8 (PHF8): 0.3836
Array Heatmap signal, PHRF1 (RP) (PHRF1 (RP)): 0.6787
Array Heatmap signal, RAG2 (RAG2): 0.302
Array Heatmap signal, SP140L (SP140L): 0.3989
Array Heatmap signal, TAF3 (TAF3): 0.3249
Array Heatmap signal, TRIM66 (PB) (TRIM66 (PB)): 0.6813

H3R8me1: H3 1-20 [Peptide H3R8me1]
Array Heatmap signal, AIRE (PP) (AIRE (PP)): 0.5084
Array Heatmap signal, BAZ2B (BAZ2B): 0.4447
Array Heatmap signal, BPTF (PB) (BPTF (PB)): 0.34
Array Heatmap signal, CHD4 (PPCC) (CHD4 (PPCC)): 0.56
Array Heatmap signal, CHD5 (PCC) (CHD5 (PCC)): 0.7411
Array Heatmap signal, CHD5 (PPCC) (CHD5 (PPCC)): 0.5449
Array Heatmap signal, DIDO1 (DIDO1): 0.6306
Array Heatmap signal, DPF2 (PPC2W2) (DPF2 (PPC2W2)): 0.6736
Array Heatmap signal, ING1 (ING1): 0.4918
Array Heatmap signal, ING2 (ING2): 0.6007
Array Heatmap signal, ING3 (ING3): 0.4554
Array Heatmap signal, ING4 (ING4): 0.4481
Array Heatmap signal, ING5 (ING5): 0.3558
Array Heatmap signal, KDM4C (TTP) (KDM4C (TTP)): 0.4945
Array Heatmap signal, KDM5A (1) (KDM5A (1)): 0.4661
Array Heatmap signal, KDM5A (3) (KDM5A (3)): 0.5111
Array Heatmap signal, KDM5B (1) (KDM5B (1)): 0.6779
Array Heatmap signal, KDM5B (3) (KDM5B (3)): 0.4843
Array Heatmap signal, KDM7A (KDM7A): 0.3359
Array Heatmap signal, MLL5 (MLL5): 0.5181
Array Heatmap signal, MORC3 (CW) (MORC3 (CW)): 0.4492
Array Heatmap signal, PHF13 (PHF13): 0.597
Array Heatmap signal, PHF21A (PHF21A): 0.4425
Array Heatmap signal, PHF23 (PHF23): 0.5397
Array Heatmap signal, PHF2 (PHF2): 0.4833
Array Heatmap signal, PHF8 (PHF8): 0.3354
Array Heatmap signal, PHRF1 (RP) (PHRF1 (RP)): 0.6379
Array Heatmap signal, RAG2 (RAG2): 0.2447
Array Heatmap signal, SP140L (SP140L): 0.3587
Array Heatmap signal, TAF3 (TAF3): 0.2594
Array Heatmap signal, TRIM66 (PB) (TRIM66 (PB)): 0.5513

H3R8me2a + K9me3: H3 1-20
Array Heatmap signal, AIRE (PP) (AIRE (PP)): 0.4401
Array Heatmap signal, BAZ2B (BAZ2B): 0.4376
Array Heatmap signal, BPTF (PB) (BPTF (PB)): 0.3424
Array Heatmap signal, CHD4 (PPCC) (CHD4 (PPCC)): 0.5686
Array Heatmap signal, CHD5 (PCC) (CHD5 (PCC)): 0.7117
Array Heatmap signal, CHD5 (PPCC) (CHD5 (PPCC)): 0.5418
Array Heatmap signal, DIDO1 (DIDO1): 0.7155
Array Heatmap signal, DPF2 (PPC2W2) (DPF2 (PPC2W2)): 0.714
Array Heatmap signal, ING1 (ING1): 0.57
Array Heatmap signal, ING2 (ING2): 0.595
Array Heatmap signal, ING3 (ING3): 0.4657
Array Heatmap signal, ING4 (ING4): 0.4504
Array Heatmap signal, ING5 (ING5): 0.3474
Array Heatmap signal, KDM4C (TTP) (KDM4C (TTP)): 0.4618
Array Heatmap signal, KDM5A (1) (KDM5A (1)): 0.4583
Array Heatmap signal, KDM5A (3) (KDM5A (3)): 0.5315
Array Heatmap signal, KDM5B (1) (KDM5B (1)): 0.64
Array Heatmap signal, KDM5B (3) (KDM5B (3)): 0.5093
Array Heatmap signal, KDM7A (KDM7A): 0.3302
Array Heatmap signal, MLL5 (MLL5): 0.5407
Array Heatmap signal, MORC3 (CW) (MORC3 (CW)): 0.4005
Array Heatmap signal, PHF13 (PHF13): 0.5734
Array Heatmap signal, PHF21A (PHF21A): 0.4463
Array Heatmap signal, PHF23 (PHF23): 0.5164
Array Heatmap signal, PHF2 (PHF2): 0.5753
Array Heatmap signal, PHF8 (PHF8): 0.3554
Array Heatmap signal, PHRF1 (RP) (PHRF1 (RP)): 0.6376
Array Heatmap signal, RAG2 (RAG2): 0.2449
Array Heatmap signal, SP140L (SP140L): 0.3611
Array Heatmap signal, TAF3 (TAF3): 0.2595
Array Heatmap signal, TRIM66 (PB) (TRIM66 (PB)): 0.5712

H3R8me2a: H3 1-20 [Peptide H3R8me2a]
Array Heatmap signal, AIRE (PP) (AIRE (PP)): 0.5572
Array Heatmap signal, BAZ2B (BAZ2B): 0.437
Array Heatmap signal, BPTF (PB) (BPTF (PB)): 0.3288
Array Heatmap signal, CHD4 (PPCC) (CHD4 (PPCC)): 0.5373
Array Heatmap signal, CHD5 (PCC) (CHD5 (PCC)): 0.7162
Array Heatmap signal, CHD5 (PPCC) (CHD5 (PPCC)): 0.5334
Array Heatmap signal, DIDO1 (DIDO1): 0.6465
Array Heatmap signal, DPF2 (PPC2W2) (DPF2 (PPC2W2)): 0.6583
Array Heatmap signal, ING1 (ING1): 0.4976
Array Heatmap signal, ING2 (ING2): 0.6044
Array Heatmap signal, ING3 (ING3): 0.4474
Array Heatmap signal, ING4 (ING4): 0.4314
Array Heatmap signal, ING5 (ING5): 0.3481
Array Heatmap signal, KDM4C (TTP) (KDM4C (TTP)): 0.4962
Array Heatmap signal, KDM5A (1) (KDM5A (1)): 0.4494
Array Heatmap signal, KDM5A (3) (KDM5A (3)): 0.6079
Array Heatmap signal, KDM5B (1) (KDM5B (1)): 0.6786
Array Heatmap signal, KDM5B (3) (KDM5B (3)): 0.4831
Array Heatmap signal, KDM7A (KDM7A): 0.3419
Array Heatmap signal, MLL5 (MLL5): 0.5074
Array Heatmap signal, MORC3 (CW) (MORC3 (CW)): 0.4558
Array Heatmap signal, PHF13 (PHF13): 0.5768
Array Heatmap signal, PHF21A (PHF21A): 0.4488
Array Heatmap signal, PHF23 (PHF23): 0.5221
Array Heatmap signal, PHF2 (PHF2): 0.4368
Array Heatmap signal, PHF8 (PHF8): 0.3345
Array Heatmap signal, PHRF1 (RP) (PHRF1 (RP)): 0.6824
Array Heatmap signal, RAG2 (RAG2): 0.2386
Array Heatmap signal, SP140L (SP140L): 0.3504
Array Heatmap signal, TAF3 (TAF3): 0.2542
Array Heatmap signal, TRIM66 (PB) (TRIM66 (PB)): 0.5681
